Holding throughout (assay type): ADME, cell-based
What all share (settings): human

Series [1] relates to A549. The experiment in a line: Metabolic stability in A549 cells assessed as rate of 6-thioguanine production in aerobic condition.
The subject of series [2] is A549. Nature of the series: Metabolic stability in A549 cells assessed as rate of prodrug loss in anoxic condition.
Series [3] deals with A549. The experiment in a line: Metabolic stability in A549 cells assessed as rate of 6-thioguanine production in anoxic condition.
Series [4] has as its system A549. The experiment in a line: Metabolic stability in A549 cells assessed as rate of prodrug loss in aerobic condition.

As for `Nc1nc(SCc2ccc([N+](=O)[O-])cc2)c2nc[nH]c2n1`, the Activity in the series on A549 [1] turned out to be 1.7 nM/min; in the series with A549 [2], 39 nM/min; with A549 [3], 0 nM/min; with A549 [4], 0 nM/min.
As to `CC(C)(Sc1nc(N)nc2[nH]cnc12)c1ccc([N+](=O)[O-])cc1`, the Activity in the series with A549 [1] was determined as 1.7 nM/min; in the series with A549 [2], 100 nM/min; with A549 [3] it was 72 nM/min; in the series on A549 [4], 9.5 nM/min.
